Like-named read-outs stand apart in the source and are kept apart here. Marks after values point to notes of the source that are not given here.
Assays:
[1] = tested on: RPMI 8402 cells; settings: range given for analogs 1 and 2 together; ref [21]; read-out: IC50 against RPMI 8402 cells; cited from earlier work
From the text: (§1) Table 2 Relative cytotoxic activities. IC50 values (μM) ^a. | column: RPMI 8402 || The development of G-quadruplex stabilizers as a potential new class of anticancer agents hinges on the ability to design compounds that stabilize only G-quadruplexes and not other nucleic acid structures such as duplex or triplex DNA [15]. While a diverse array of compounds have been reported to stabilize G-quadruplex DNA [1], most also have some ability to stabilize duplex DNA. The natural product telomestatin for example, is reported to stabilize G-quadruplex DNA with 70:1 selectivity over duplex DNA [16, 17]. In contrast, the synthetic macrocyclic hexaoxazole HXDV (Figure 1) demonst ...

[2] = tested on: KB3-1 cells; settings: range given for analogs 1 and 2 together; ref [21]; read-out: IC50 against KB3-1 cells; cited from earlier work
From the text: as §1, with “KB3-1 wt.” for “RPMI 8402”

[3] = Water-solubility (qualitative); format: physicochemical; settings: qualitative statement, method not given
[4] = tested on: Salmon testes (ST) duplex DNA; experiment: UV melting of salmon testes duplex DNA; format: binding; settings: for ΔTtran, salmon testes duplex DNA: change in Ttran induced by compound, UV melting at 260 nm, pH 7.5, K+ 150 mM, uncertainty ± 0.5 °C; for ΔTtran, salmon testes duplex DNA / Ttran, salmon testes duplex DNA: ST DNA 15 µM base pair, drug 15 µM; for Ttran, salmon testes duplex DNA: first-derivative UV melting at 260 nm, 10 mM potassium phosphate pH 7.5, total K+ 150 mM, no drug: 86.6
Experimental: (§2) Each compound was evaluated for its ability to selectively bind and stabilize G-quadruplex DNA in the presence of K^+ ions (150 mM). Salmon testes (ST) DNA was employed as a model of duplex DNA and the human telomeric sequence d[T2G3(T2AG3)3A], denoted as hTel, was used as a model of quadruplex DNA. This sequence has been shown by Patel and co-workers, to exist as an intramolecular (3 + 1) G-quadruplex in which three strands are oriented in one direction and the fourth is oriented in the opposite direction in K^+ solution [35]. The first-derivative forms of the UV melting profiles for ST DNA and hTel DNA were recorded in the absence and presence of the various macrocycles. The ligand-induced changes, if any, in the transition temperature (Ttran) corresponding to the maxima (for quadruplex DNA) or minima (for duplex DNA) of these first-derivative melting profiles are listed in Table 1 for each macrocycle. With the exception of 8 which has a slight (<1 °C) destabilizing effect, none of the other macrocycles alters the thermal stability of ST duplex DNA to any significant extent and any observed changes in Ttran are within the experimental uncertainty. This observation is consistent with little or no duplex DNA binding by these macrocycles. Similar behavior has been observed for other macrocyclic pyridyl polyoxazoles. Temperature-Dependent Spectrophotometry. Temperature-dependent absorption experiments were conducted on an AVIV Model 14DS Spectrophotometer (Aviv Biomedical, Lakewood, NJ, USA) equipped with a thermoelectrically controlled cell holder. Quartz cells with a path length of 1.0 cm were used for all the absorbance studies. Temperature-dependent absorption profiles were acquired at either 260 nm (for ST duplex DNA) or 295 nm (for hTel quadruplex DNA) with a 5 s averaging time. The temperature was raised in 0.5 °C increments, and the samples were allowed to equilibrate for 1 min at each temperature setting. In the quadruplex melting studies, the hTel concentration was 5 µM in strand (120 μM in nucleotide). When present in these quadruplex studies, the drug concentrations were 20 µM. In the duplex melting studies the ST DNA concentrations were 15 µM base pair (30 μM in nucleotide) and, when present, the drug concentrations were 15 µM. The buffer for all the UV melting experiments contained 10 mM potassium phosphate (pH 7.5) and sufficient KCl (132 mM) to bring the total K^+ concentration to 150 mM. Prior to their use in the UV melting experiments, all nucleic acid solutions were preheated at 90 °C for 5 min and slowly cooled to room temperature over a period of 4 hr.

[5] = tested on: KB3-1 cells; experiment: MTT cytotoxicity assay, KB3-1; format: cell-based, human; settings: continuous exposure for four days, means of at least two determinations ± standard deviation, read-out: IC50, KB3-1 wt.
Experimental: (§3) Each N,N-dimethylamino-substituted macrocycle was also evaluated for cytotoxic activity against a human lymphoblastoma RPMI 8402 and a human epidermoid carcinoma KB3-1 cell line (Table 2). The results from these assays are informative about the relationship of structure to cytotoxic activity among the PyPX macrocyclic G-quadruplex stabilizers. […] An explanation for this observation is not clear at this time. The three-carbon analogs 12 and 22 have nearly equivalent activity at both positions, but these longer-chain analogs are generally lower in activity than the two-carbon analogs. Attachment of the dimethylamino group directly to the phenyl ring (8 and 19) leads to compounds having the greatest cytotoxic potency at their respective points of attachment. […] In general analogs that have an even number (0 or 2) of methylene spacer groups are more cytotoxic than those with an odd number. […] Moving the side-chain away from the phenyl ring and onto an oxazole ring also fails to improve cytotoxic activity.
(§4) Cytotoxicity was determined using the MTT-microtiter plate tetrazolinium assay (MTA). The human lymphoblast RPMI 8402 cell line was provided by Dr. Toshiwo Andoh (Aichi Cancer Center Research Institute, Nagoya, Japan). The KB3-1 cell line was obtained from K.V. Chin (The Cancer Institute of New Jersey, New Brunswick, NJ, USA). The cytotoxicity assay was performed using 96-well microtiter plates. Cells were grown in suspension at 37 °C in 5% CO2 and maintained by regular passage in RPMI medium supplemented with 10% heat inactivated fetal bovine serum, L-glutamine (2 mM), penicillin (100 U/mL), and Streptomycin (0.1 mg/mL). For determination of IC50 values, cells were exposed continuously for four days to varying concentrations of drug, and MTT assays were performed at the end of the fourth day. […] All assays were performed at least twice in six replicate wells.

[6] = tested on: RPMI 8402 cells; experiment: MTT cytotoxicity assay, RPMI 8402; format: cell-based, human; settings: continuous exposure for four days
Experimental: as §3, §4

[7] = tested on: human telomeric sequence d[T2G3(T2AG3)3A] (hTel) quadruplex DNA; experiment: UV melting of hTel quadruplex DNA (G-quadruplex stabilization); format: binding; settings: hTel 5 µM strand, drug 20 µM; for ΔTtran, hTel quadruplex DNA: change in Ttran induced by compound, UV melting at 295 nm, pH 7.5, K+ 150 mM, uncertainty ± 0.5 °C; for Ttran, hTel quadruplex DNA: first-derivative UV melting at 295 nm, 10 mM potassium phosphate pH 7.5, total K+ 150 mM, no drug: 64.6
Experimental: as §2

[8] = tested on: several tumor cell lines; settings: ref [18],[20]; read-out: average IC50 towards several tumor cell lines; cited from earlier work
From the text: as §1, with “The” for “Table 2 Relative cytotoxic activities. IC50 values (μM) ^a. | column: RPMI 8402 || The”

[9] = tested on: Salmon testes (ST) duplex DNA; settings: change in transition temperature of ST duplex DNA; ref [21]; cited from earlier work
From the text: Table 1 Effect of various pyridyl polyoxazoles on the thermal stabilities of duplex and quadruplex DNA. | column: Salmon Testes Duplex DNA / ΔTtran (°C) ^a

[10] = means of at least two determinations ± standard deviation

SMILES | IC50 [1] [nM] | IC50 [2] [nM] | water-solubility [3] | ΔTtran, salmon testes duplex DNA [4] [°C] | Ttran, salmon testes duplex DNA [4] [°C] | destabilizing effect on ST duplex DNA (thermal stability) ([4]; size of the decrease in Ttran) [°C] | IC50 [5] [nM] | IC50 ([6]; single determination) [nM] | ΔTtran, hTel quadruplex DNA [7] [°C] | Ttran, hTel quadruplex DNA [7] [°C] | IC50 [6, 10] [nM] | IC50 [8] [nM] | ΔTtran, salmon testes duplex DNA [9]
NCCc1cc2cc(c1)CNC(=O)c1coc(n1)-c1coc(n1)-c1cccc(n1)-c1nc(co1)-c1nc(co1)C(=O)NC2 [Compound 1] | 90 to 180 | 30 to 40 |  |  |  |  |  |  |  |  |  |  | 
CN(C)c1ccc2cc1CNC(=O)c1coc(n1)-c1coc(n1)-c1cccc(n1)-c1nc(co1)-c1nc(co1)C(=O)NC2 [Compound 8, Pyridyl tetraoxazole macrocycle with a 4-(N,N-dimethylamino) group on the phenyl ring] |  |  | significantly less water-soluble | −0.9 | 85.7 | < 1 | 30 | 120 | 20.5 | 85.1 |  |  | 
CN(C)CCc1ccc2cc1CNC(=O)c1coc(n1)-c1coc(n1)-c1cccc(n1)-c1nc(co1)-c1nc(co1)C(=O)NC2 [Compound 11, Pyridyl tetraoxazole macrocycle with a 4-[2-(N,N-dimethylamino)ethyl] group on the phenyl ring] |  |  |  | −0.4 | 86.2 |  | 70 ± 70 |  | 24.6 | 89.2 | 500 ± 400 |  | 
CN(C)CCCc1ccc2cc1CNC(=O)c1coc(n1)-c1coc(n1)-c1cccc(n1)-c1nc(co1)-c1nc(co1)C(=O)NC2 [Compound 12, Pyridyl tetraoxazole macrocycle with a 4-[3-(N,N-dimethylamino)propyl] group on the phenyl ring] |  |  |  | −0.4 | 86.2 |  | 250 ± 70 |  | 7.1 | 71.7 | 400 |  | 
CN(C)c1cc2cc(c1)CNC(=O)c1coc(n1)-c1coc(n1)-c1cccc(n1)-c1nc(co1)-c1nc(co1)C(=O)NC2 [Compound 19, Pyridyl tetraoxazole macrocycle with a 5-N,N-dimethylamino group on the phenyl ring] |  |  | significantly less water-soluble | −0.5 | 86.1 |  | 30 |  | 15.5 | 80.1 | 60 ± 10 |  | 
CN(C)Cc1cc2cc(c1)CNC(=O)c1coc(n1)-c1coc(n1)-c1cccc(n1)-c1nc(co1)-c1nc(co1)C(=O)NC2 [Compound 20, Pyridyl tetraoxazole macrocycle with a 5-(N,N-dimethylaminomethyl) group on the phenyl ring] |  |  |  | −0.4 | 86.2 |  | 5500 ± 700 |  | 0.1 | 64.7 | 7000 ± 4200 |  | 
CN(C)CCCc1cc2cc(c1)CNC(=O)c1coc(n1)-c1coc(n1)-c1cccc(n1)-c1nc(co1)-c1nc(co1)C(=O)NC2 [Compound 22, Pyridyl tetraoxazole macrocycle with a 5-[3-(N,N-dimethylamino)propyl] group on the phenyl ring] |  |  |  | −0.4 | 86.2 |  | 220 ± 130 |  | 28.6 | 93.2 | 500 ± 100 |  | 
CN(C)CCc1oc2nc1C(=O)NCc1cccc(c1)CNC(=O)c1coc(n1)-c1coc(n1)-c1cccc(n1)-c1nc-2co1 [Compound 36, Pyridyl tetraoxazole macrocycle with a single 2-(N,N-dimethylamino)ethyl side chain] |  |  | good water-solubility | −0.4 | 86.2 |  | 140 ± 20 |  | 4.6 | 69.2 | 280 ± 40 |  | 
CN(C)CCc1oc2nc1C(=O)NCc1cccc(c1)CNC(=O)c1nc(oc1CCN(C)C)-c1coc(n1)-c1cccc(n1)-c1nc-2co1 [Compound 37, Pyridyl tetraoxazole macrocycle with two 2-(N,N-dimethylamino)ethyl side chains] |  |  |  | −0.4 | 86.2 |  | 400 ± 100 |  | 1.6 | 66.2 | 1500 |  | 
CC(C)[C@@H]1NC(=O)c2coc(n2)-c2coc(n2)-c2coc(n2)[C@H](C(C)C)NC(=O)c2coc(n2)-c2coc(n2)-c2coc1n2 [HXDV, reference compound] |  |  |  |  |  |  | 350 ± 80 |  |  |  | 540 ± 120 | 500 | 0 ^b °C
